The values below come from patent US6440453B1, “Transdermal systems for release of 5-HT3 receptor antagonists and their use in anti-emetic treatment” (Novosis Pharma AG, priority 1999, dated 2002).

For data set [1] the following is noted: after oral administration; cited from earlier work.
For data set [2] the following is noted: healthy test persons, single dose 0.15 mg/kg i.v., cited from earlier work.
In data set [3] the test system is nausea and emesis. The note with it: cited from earlier work.
For data set [4] the following is noted: humans; cited from earlier work.
The conditions of data set [5]: diffusion cell, cited from earlier work.
For data set [6] the following is noted: cited from earlier work.
Data set [7] can be described thus: in vitro skin permeation through the skin of a nude mouse.
Text: All employed solutions are saturated.
The given values are average values which were obtained with saturated solutions.
Saturated solutions were used to achieve the respective maximal thermodynamic activities.

Counter-ions that a name gives are not always drawn. Like-named read-outs stand apart in the source and are kept apart here.

For `Cc1nccn1CC1CCc2c(c3ccccc3n2C)C1=O` (racemic) [ondansetron, (±)-1,2,3,9-tetrahydro-9-methy-3-[(2-methyl-1H-imidazole-1-yl)methyl]-4H-carbazol-4-one monohydrochloride], the bioavailability result in data set [1] was “approximately 50%”. Moreover, the average half-life in data set [2] (age group 19-40 years) is on record as 3.5 h; in data set [2] (age group 61-74 years), 4.7 h; in data set [2] (age group ≧75 years) it was 5.5 h. For the same compound, the peak concentration in plasma in data set [2] (age group 19-40 years) is 102 ng/mL. In addition, the plasma clearance in data set [2] (age group 19-40 years) was 6.33 mL/min/kg; in data set [2] (age group 61-74 years) it was 5.33 mL/min/kg; in data set [2] (age group ≧75 years), 4.33 mL/min/kg. Moreover, the “treatment of nausea and emesis” value in data set [3] (patients treated with anti-tumor drugs such as cisplatin derivatives) was “reliable in treating nausea and emesis”. In addition, the side effects result in data set [3] (patients) was “headaches, diarrhea, and temporary abnormalities in liver function tests”. Further, in data set [4], the “part of a radioactively marked dose found in urine” value is “approximately 5%”.
For `Cc1cccc(CN2CCN(C)C[C@@H](NC(=O)c3n[nH]c4ccccc34)C2)c1.Cl.Cl` [(R)-(−)-N-(1-methyl-4-(3-methylbenzyl)hexahydro-1H-1,4-diazepin-6-yl)-1H-indazole-3-carboxamided.2HCl], the “flow of the active agent through the human epidermis” value in data set [5] (adhesive matrix of styrene-butadiene copolymer used as a comparison) is on record as 0.8 μg/cm^2/h; in data set [5] (two-phase matrix with 4 % active agent, calcium silicate, dimethyl siloxane adhesive (WO 9407468)), 17.1 μg/cm^2/h.
For `Cc1nccn1CC1CCc2c(c3ccccc3n2C)C1=O` (centres unmarked) [ondansetron hydrochloride], in data set [6] (after oral administration), the “time until peak concentrations are present in the plasma” value is “Approximately 1 hour”. Further, the average elimination half-life in data set [6] (healthy test persons) was 3.5 h; in data set [6] (older patients), “approximately 7.9 hours”. Besides, the “permeation compared with the free base” value in data set [7] (in combination with the described solvent mixture) is “permeates better than ondansetron in the form of the free, non-ionic base”. Moreover, in data set [7] (mixture of ethanol, tea tree oil and water vs saturated aqueous solution, after 24 hours), the “amount permeated relative to a saturated aqueous solution” value is listed as “approximately 12 times”. Further, the “permeation through the skin (FIG. 2)” value in data set [7] (saturated aqueous solution) was “the results do not differ from those which were obtained using pure tea tree oil”. For the same compound, the “permeation through the skin (FIG. 1)” value in data set [7] (saturated solution in ethanol) is listed as “best permeation”; in data set [7] (saturated solution in tea tree oil alone), “insufficient permeation”. Moreover, the amount permeated entry in data set [7] (solution in a mixture of ethanol, tea tree oil and water, after 24 hours) is recorded as “approximately 1.2 mg per cm^2”. Also, in data set [7] (solution in a mixture of ethanol, tea tree oil and water, first 4 to 5 hours), the “flow of the active agent (FIG. 2)” value is “extremely strong increase”.
